Target: T1, SLC26A9 (Homo sapiens, UniProt Q7LBE3)
T1 construct: expressed in transfected cells; host or cells: FRT cells coexpressing YFP
T1 sequence (Q7LBE3 1-791): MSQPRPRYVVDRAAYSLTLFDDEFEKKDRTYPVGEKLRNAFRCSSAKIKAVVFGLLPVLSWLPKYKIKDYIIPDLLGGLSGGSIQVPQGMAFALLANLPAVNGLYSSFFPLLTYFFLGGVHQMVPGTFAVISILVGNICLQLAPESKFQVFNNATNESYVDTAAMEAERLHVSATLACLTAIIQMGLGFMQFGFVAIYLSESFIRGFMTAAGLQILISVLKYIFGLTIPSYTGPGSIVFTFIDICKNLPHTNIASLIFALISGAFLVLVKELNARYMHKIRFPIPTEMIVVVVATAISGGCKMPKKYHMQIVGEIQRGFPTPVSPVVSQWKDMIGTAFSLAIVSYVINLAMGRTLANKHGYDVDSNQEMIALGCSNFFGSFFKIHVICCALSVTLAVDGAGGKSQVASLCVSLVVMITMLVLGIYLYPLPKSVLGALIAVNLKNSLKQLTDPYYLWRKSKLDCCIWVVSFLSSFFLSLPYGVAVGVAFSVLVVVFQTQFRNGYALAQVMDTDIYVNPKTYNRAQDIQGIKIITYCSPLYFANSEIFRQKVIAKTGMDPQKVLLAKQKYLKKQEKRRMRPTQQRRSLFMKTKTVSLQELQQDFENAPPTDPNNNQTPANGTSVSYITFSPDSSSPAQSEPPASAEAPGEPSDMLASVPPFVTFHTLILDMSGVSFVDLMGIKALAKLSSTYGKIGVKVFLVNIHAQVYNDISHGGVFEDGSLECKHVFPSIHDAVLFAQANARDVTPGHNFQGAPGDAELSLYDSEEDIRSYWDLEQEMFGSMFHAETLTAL
Assay: Selectivity: Cl-/I- exchange in FRT cells coexpressing YFP and SLC26A9
Assay type: cell-based
Conditions: 25 μM
Description: PAT1inh-B01 selectivity was studied by testing its effects on related SLC26A family anion transporters and the Cl^– channel TMEM16A. These measurements used a similar Cl^–/I^– exchange protocol, but FRT cells separately expressed each of the SLC26A family members or TMEM16A. […] PAT1inh-B01 selectivity was also tested by short-circuit current (Isc) in well-differentiated human bronchial epithelial (HBE) cells, which have a complex ion transport mechanism that includes cystic fibrosis transmembrane conductance regulator (CFTR), epithelial Na^+ channel (ENaC), and Ca^+2-activated chloride channels (CaCCs) ([13]). […] Potential PAT1inh-B01 cytotoxicity was studied in FRT cells.
Figure 3 PAT1inh-B01 selectivity and cytotoxicity. […] Cl^–/I^– exchange or I^– influx measured in FRT cells coexpressing YFP and SLC26A isoforms or TMEM16A, with data shown for 25 μM PAT1inh-B01, DMSO vehicle control, and 500 μM niflumic acid (positive control for SLC26A transporters) or 10 μM TMinh-23 (positive control for TMEM16A). […] (C) (left) Short-circuit current (Isc) in well-differentiated HBE cells measured in the absence (top) and presence (bottom) of 25 μM PAT1inh-B01. […]
YFP-based cellular assays of slc26a3, slc26a4, SLC26A9, and TMEM16A function were performed as described previously ([7]). […] The activities of ENaC, CFTR, and CaCC were determined using well-differentiated HBE cells as described previously ([13]). […]

## Cc1c(Br)c(C(F)(F)F)nn1CC(=O)N1CCc2nc3cc(-c4ccccc4)[nH]n3c(=O)c2C1 [PAT1inh-B01]
  inhibition of SLC26A9: did not significantly inhibit
